Patent US20180265515A1 (Genentech, Inc., priority 2015, published 2018)

Assays:
[1] = biological target: T1, isolated recombinant JAK2 kinase domain (Homo sapiens, UniProt O60674); assay: JAK2 enzyme assay (Caliper LabChip, Ki); format: biochemical; conditions: 25 μM ATP
T1 construct: The activity of the isolated recombinant JAK1 and JAK2 kinase domain was measured
Method: (§1) JAK Enzyme Assays were Carried Out as Follows:
(§2) The activity of the isolated recombinant JAK1 and JAK2 kinase domain was measured by monitoring phosphorylation of a peptide derived from JAK3 (Val-Ala-Leu-Val-Asp-Gly-Tyr-Phe-Arg-Leu-Thr-Thr, fluorescently labeled on the N-terminus with 5-carboxyfluorescein) using the Caliper LabChip® technology (Caliper Life Sciences, Hopkinton, Mass.). […] Reactions were incubated at 22° C. in 384-well polypropylene microtiter plates for 30 minutes and then stopped by addition of 25 μL of an EDTA containing solution (100 mM HEPES buffer (pH 7.2), 0.015% Brij-35, 150 mM EDTA), resulting in a final EDTA concentration of 50 mM. After termination of the kinase reaction, the proportion of phosphorylated product was determined as a fraction of total peptide substrate using the Caliper LabChip® 3000 according to the manufacturer's specifications. Ki values were then determined using the Morrison tight binding model (Morrison, J. F., Biochim. Biophys. Acta. 185:269-296 (1969); William, J. W. and Morrison, J. F., Meth. Enzymol., 63:437-467 (1979)) modified for ATP-competitive inhibition [Ki=Ki,app/(1+[ATP]/Km,app)].

[2] = test system: JAK1-dependent STAT6 phosphorylation downstream of IL-13 stimulation in BEAS-2B human bronchial epithelial cells; assay: JAK1 pathway assay in BEAS-2B cells (IL-13 stimulated STAT6 phosphorylation, MSD); format: cell-based; conditions: read-out: P-STAT6 BEAS2B + IL13 IC50
Method: JAK1 Pathway Assay in Cell Lines was Carried Out as Follows:
Inhibitor potency (EC50) was determined in cell-based assays designed to measure JAK1 dependent STAT phosphorylation. As noted above, inhibition of IL-4, IL-13, and IL-9 signaling by blocking the Jak/Stat signaling pathway can alleviate asthmatic symptoms in pre-clinical lung inflammation models (Mathew et al., 2001, J Exp Med 193(9): 1087-1096; Kudlacz et. al., 2008, Eur J. Pharmacol 582(1-3): 154-161).
In one assay approach, TF-1 human erythroleukemia cells obtained from the American Type Culture Collection (ATCC; Manassas, Va.) were used to measure JAK1-dependent STAT6 phosphorylation downstream of IL-13 stimulation. Prior to use in the assays, TF-1 cells were starved of GM-CSF overnight in OptiMEM medium (Life Technologies, Grand Island, N.Y.) supplemented with 0.5% charcoal/dextran stripped fetal bovine serum (FBS), 0.1 mM non-essential amino acids (NEAA), and 1 mM sodium pyruvate. The assays were run in 384-well plates in serum-free OptiMEM medium using 300,000 cells per well. In a second assay approach, BEAS-2B human bronchial epithelial cells obtained from ATCC were plated at 100,000 cells per well of a 96-well plate one day prior to the experiment. The BEAS-2B assay was run in complete growth medium (bronchial epithelial basal medium plus bulletkit; Lonza; Basel, Switzerland).
Test compounds were serially diluted 1:2 in DMSO and then diluted 1:50 in medium just before use. Diluted compounds were added to the cells, for a final DMSO concentration of 0.2%, and incubated for 30 min (for the TF-1 assay) or 1 hr (for the BEAS-2B assay) at 37° C. Then, cells were stimulated with human recombinant cytokine at their respective EC90 concentrations, as previously determined for each individual lot. Cells were stimulated with IL-13 (R&D Systems, Minneapolis, Minn.) for 15 min at 37° C. The TF-1 cell reactions were stopped by the direct addition of 10× lysis buffer (Cell Signaling Technologies, Danvers, Mass.), whereas the BEAS-2B cell incubations were halted by the removal of medium and addition of 1× lysis buffer. The resultant samples were frozen in the plates at −80° C. Compound mediated inhibition of STAT6 phosphorylation was measured in the cell lysates using MesoScale Discovery (MSD) technology (Gaithersburg, Md.). EC50 values were determined as the concentration of compound required for 50% inhibition of STAT phosphorylation relative to that measured for the DMSO control.

[3] = biological target: T2, isolated recombinant JAK1 kinase domain (Homo sapiens, UniProt P23458); assay: JAK1 enzyme assay (Caliper LabChip, Ki); format: biochemical; conditions: recombinant JAK1 kinase domain, 25 μM ATP
T2 construct: The activity of the isolated recombinant JAK1 and JAK2 kinase domain was measured
Method: as §1, §2

T2 sequence (P23458 875-1153 limits assumed): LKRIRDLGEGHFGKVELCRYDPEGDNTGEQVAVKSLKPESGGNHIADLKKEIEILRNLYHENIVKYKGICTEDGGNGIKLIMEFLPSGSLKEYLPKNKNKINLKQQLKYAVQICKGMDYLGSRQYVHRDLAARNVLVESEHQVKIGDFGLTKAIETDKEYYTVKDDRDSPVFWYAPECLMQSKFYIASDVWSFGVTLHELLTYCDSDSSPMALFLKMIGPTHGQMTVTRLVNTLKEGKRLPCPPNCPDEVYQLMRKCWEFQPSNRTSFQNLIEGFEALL
T1 sequence (O60674 849-1124 limits assumed): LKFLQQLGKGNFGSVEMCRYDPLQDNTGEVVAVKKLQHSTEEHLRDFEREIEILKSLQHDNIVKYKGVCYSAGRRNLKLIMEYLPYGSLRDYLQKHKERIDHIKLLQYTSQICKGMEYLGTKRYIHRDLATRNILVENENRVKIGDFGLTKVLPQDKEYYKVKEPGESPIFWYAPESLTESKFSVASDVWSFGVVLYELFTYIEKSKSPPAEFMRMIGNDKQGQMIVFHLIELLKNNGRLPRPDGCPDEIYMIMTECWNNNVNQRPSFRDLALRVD

Ki [1]	Ki [3]	SMILES	IC50 [2]
400 pM	390 pM	CSc1ccc(OC(F)F)c(-c2nn(CC(=O)N3CC4CCCNC4C3)cc2NC(=O)c2cnn3cccnc23)c1 (stereo not drawn) [Example 35, N-[1-[2-(1,2,3,4,4a,5,7,7a-octahydropyrrolo[3,4-b]pyridin-6-yl)-2-oxo-ethyl]-3-[2-(difluoromethoxy)-5-methylsulfanyl-phenyl]pyrazol-4-yl]pyrazolo[1,5-a]pyrimidine-3-carboxamide]	19000 pM
290 pM	360 pM	CSc1ccc(OC(F)F)c(-c2nn(CCNC3COC3)cc2NC(=O)c2cnn3cccnc23)c1 [Example 36, N-[3-[2-(difluoromethoxy)-5-methylsulfanyl-phenyl]-1-[2-(oxetan-3-ylamino)ethyl]pyrazol-4-yl]pyrazolo[1,5-a]pyrimidine-3-carboxamide]	9800 pM
480 pM	220 pM	CSc1ccc(OC(F)F)c(-c2nn(C[C@H]3CCCN3C)cc2NC(=O)c2cnn3cccnc23)c1 [Example 37, N-[3-[2-(difluoromethoxy)-5-methylsulfanyl-phenyl]-1-[[(2R)-1-methylpyrrolidin-2-yl]methyl]pyrazol-4-yl]pyrazolo[1,5-a]pyrimidine-3-carboxamide]	9900 pM
190 pM	230 pM	CSc1ccc(OC(F)F)c(-c2nn(CCN[C@@H]3CCCOC3)cc2NC(=O)c2cnn3cccnc23)c1 [Example 38, N-[3-[2-(difluoromethoxy)-5-methylsulfanyl-phenyl]-1-[2-[[(3R)-tetrahydropyran-3-yl]amino]ethyl]pyrazol-4-yl]pyrazolo[1,5-a]pyrimidine-3-carboxamide]	20000 pM
330 pM	300 pM	CSc1ccc(OC(F)F)c(-c2nn(CC(=O)N3CC4CCCN(C)C4C3)cc2NC(=O)c2cnn3cccnc23)c1 (stereo not drawn) [Example 39, N-[3-[2-(difluoromethoxy)-5-methylsulfanyl-phenyl]-1-[2-(1-methyl-3,4,4a,5,7,7a-hexahydro-2H-pyrrolo[3,4-b]pyridin-6-yl)-2-oxo-ethyl]pyrazol-4-yl]pyrazolo[1,5-a]pyrimidine-3-carboxamide]	19000 pM
250 pM	280 pM	CSc1ccc(OC(F)F)c(-c2nn(CCN[C@H]3C[C@H](O)C3)cc2NC(=O)c2cnn3cccnc23)c1 [Example 40]	9500 pM
450 pM	270 pM	CSc1ccc(OC(F)F)c(-c2nn(CC(=O)N3CCC(NCC4(C#N)CC4)CC3)cc2NC(=O)c2cnn3cccnc23)c1 [Example 41, N-[1-[2-[4-[(1-cyanocyclopropyl)methylamino]-1-piperidyl]-2-oxo-ethyl]-3-[2-(difluoromethoxy)-5-methylsulfanyl-phenyl]pyrazol-4-yl]pyrazolo[1,5-a]pyrimidine-3-carboxamide]	20000 pM
260 pM	170 pM	CSc1ccc(OC(F)F)c(-c2nn(CC(=O)N3CCC(N(C)CC4(C#N)CC4)CC3)cc2NC(=O)c2cnn3cccnc23)c1 [Example 42, N-[1-[2-[4-[(1-cyanocyclopropyl)methyl-methyl-amino]-1-piperidyl]-2-oxo-ethyl]-3-[2-(difluoromethoxy)-5-methylsulfanyl-phenyl]pyrazol-4-yl]pyrazolo[1,5-a]pyrimidine-3-carboxamide]	13000 pM
870 pM	350 pM	CSc1ccc(OC(F)F)c(-c2nn(CC(=O)N3CCC(CN4CCC[C@H]4C(=O)N(C)C)CC3)cc2NC(=O)c2cnn3cccnc23)c1 [Example 43, N-[3-[2-(difluoromethoxy)-5-methylsulfanyl-phenyl]-1-[2-[4-[[(2S)-2-(dimethylcarbamoyl)pyrrolidin-1-yl]methyl]-1-piperidyl]-2-oxo-ethyl]pyrazol-4-yl]pyrazolo[1,5-a]pyrimidine-3-carboxamide]	76000 pM
720 pM	380 pM	CNC(=O)[C@@H]1CCCN1CC1CCN(C(=O)Cn2cc(NC(=O)c3cnn4cccnc34)c(-c3cc(SC)ccc3OC(F)F)n2)CC1 [Example 44, N-[3-[2-(difluoromethoxy)-5-methylsulfanyl-phenyl]-1-[2-[4-[[(2S)-2-(methylcarbamoyl)pyrrolidin-1-yl]methyl]-1-piperidyl]-2-oxo-ethyl]pyrazol-4-yl]pyrazolo[1,5-a]pyrimidine-3-carboxamide]	73000 pM
680 pM	320 pM	CSc1ccc(OC(F)F)c(-c2nn(CC(=O)N3CCC(N4CCCOCC4)CC3)cc2NC(=O)c2cnn3cccnc23)c1 [Example 45, N-[3-[2-(difluoromethoxy)-5-methylsulfanyl-phenyl]-1-[2-[4-(1,4-oxazepan-4-yl)-1-piperidyl]-2-oxo-ethyl]pyrazol-4-yl]pyrazolo[1,5-a]pyrimidine-3-carboxamide]	44000 pM
440 pM	250 pM	CSc1ccc(OC(F)F)c(-c2nn(CC(=O)N3CCC(N(C)C4COC4)CC3)cc2NC(=O)c2cnn3cccnc23)c1 [Example 46, N-(3-(2-(difluoromethoxy)-5-(methylthio)phenyl)-1-(2-(4-(methyl(oxetan-3-yl)amino)piperidin-1-yl)-2-oxoethyl)-1H-pyrazol-4-yl)pyrazolo[1,5-a]pyrimidine-3-carboxamide]	22000 pM
1300 pM	520 pM	CSc1ccc(OC(F)F)c(-c2nn(CC(=O)N3CCC(N4CCC[C@H]4C(=O)N(C)C)CC3)cc2NC(=O)c2cnn3cccnc23)c1 [Example 47, N-[3-[2-(difluoromethoxy)-5-methylsulfanyl-phenyl]-1-[2-[4-[(2S)-2-(dimethylcarbamoyl)pyrrolidin-1-yl]-1-piperidyl]-2-oxo-ethyl]pyrazol-4-yl]pyrazolo[1,5-a]pyrimidine-3-carboxamide]	350000 pM
440 pM	290 pM	CSc1ccc(OC(F)F)c(-c2nn(CC(=O)N3CCC(N4CC[S+]([O-])CC4)CC3)cc2NC(=O)c2cnn3cccnc23)c1 [Example 48, N-[3-[2-(difluoromethoxy)-5-methylsulfanyl-phenyl]-1-[2-oxo-2-[4-(1-oxo-1,4-thiazinan-4-yl)-1-piperidyl]ethyl]pyrazol-4-yl]pyrazolo[1,5-a]pyrimidine-3-carboxamide]	410000 pM
620 pM	280 pM	CSc1ccc(OC(F)F)c(-c2nn(CC(=O)N3CCC(N(C)[C@H]4CCOC4)CC3)cc2NC(=O)c2cnn3cccnc23)c1 [Example 49, N-[3-[2-(difluoromethoxy)-5-methylsulfanyl-phenyl]-1-[2-[4-[methyl-[(3S)-tetrahydrofuran-3-yl]amino]-1-piperidyl]-2-oxo-ethyl]pyrazol-4-yl]pyrazolo[1,5-a]pyrimidine-3-carboxamide]	15000 pM
960 pM	500 pM	CSc1ccc(OC(F)F)c(-c2nn(CC(=O)N3CCC(N(C)CC4OCCO4)CC3)cc2NC(=O)c2cnn3cccnc23)c1 [Example 50]	18000 pM
970 pM	430 pM	CSc1ccc(OC(F)F)c(-c2nn(CC(=O)N3CCC(N(C)CC4(C)OCCO4)CC3)cc2NC(=O)c2cnn3cccnc23)c1 [Example 51, N-[3-[2-(difluoromethoxy)-5-methylsulfanyl-phenyl]-1-[2-[4-[methyl-[(2-methyl-1,3-dioxolan-2-yl)methyl]amino]-1-piperidyl]-2-oxo-ethyl]pyrazol-4-yl]pyrazolo[1,5-a]pyrimidine-3-carboxamide]	26000 pM
